Results as given in PubChem BioAssay AID248 (DTP/NCI, 2004).
Several values for one entry are separate records, joined by “and”; a condition that tells them apart may be missing. Identical values can stand only once. Toxic doses and inconclusive results are not listed. Cut-off read from the data, not from the text of the source: active = T/C of 150% or more; inactive = T/C below 125%.

Tested on: L1210 leukemia ip in BDF1 mice, survival T/C
Experiment: NCI In Vivo Anticancer Drug Screen. Data for tumor model L1210 Leukemia (intraperitoneal) in B6D2F1 (BDF1) mice
Conditions: endpoint: mean survival time, higher = longer survival
Outline: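 Tumor was transplanted into mice, which were then dosed with test compound or vehicle alone. Survival was recorded for each group, and the treated figure was expressed relative to the control figure.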

[1] = dose: 100.0 mg/kg/injection, schedule: Q01DX009 (ip), vehicle: Klucel (hydroxypropylcellulose) (HPC)
[2] = dose: 200.0 mg/kg/injection, schedule: Q01DX009 (ip), vehicle: Klucel (hydroxypropylcellulose) (HPC)
[3] = dose: 400.0 mg/kg/injection, schedule: Q01DX009 (ip), vehicle: Klucel (hydroxypropylcellulose) (HPC)
[4] = dose: 100.0 mg/kg/injection, schedule: Q04DX003 (ip), vehicle: Klucel (hydroxypropylcellulose) (HPC)
[5] = dose: 200.0 mg/kg/injection, schedule: Q04DX003 (ip), vehicle: Klucel (hydroxypropylcellulose) (HPC)
[6] = dose: 400.0 mg/kg/injection, schedule: Q04DX003 (ip), vehicle: Klucel (hydroxypropylcellulose) (HPC)
[7] = dose: 50.0 mg/kg/injection, schedule: Q01DX009 (ip), vehicle: saline with Tween-80
[8] = dose: 100.0 mg/kg/injection, schedule: Q01DX009 (ip), vehicle: saline with Tween-80
[9] = dose: 100.0 mg/kg/injection, schedule: Q04DX003 (ip), vehicle: saline with Tween-80
[10] = dose: 50.0 mg/kg/injection, schedule: Q01DX001 (ip), vehicle: saline
[11] = dose: 100.0 mg/kg/injection, schedule: Q01DX001 (ip), vehicle: saline
[12] = dose: 200.0 mg/kg/injection, schedule: Q01DX001 (ip), vehicle: saline
[13] = dose: 400.0 mg/kg/injection, schedule: Q01DX001 (ip), vehicle: saline
[14] = dose: 100.0 mg/kg/injection, schedule: Q04DX003 (ip), vehicle: saline
[15] = dose: 200.0 mg/kg/injection, schedule: Q04DX003 (ip), vehicle: saline
[16] = dose: 400.0 mg/kg/injection, schedule: Q04DX003 (ip), vehicle: saline
[17] = dose: 50.0 mg/kg/injection, schedule: Q01DX009 (ip), vehicle: saline
[18] = dose: 100.0 mg/kg/injection, schedule: Q01DX009 (ip), vehicle: saline
[19] = dose: 100.0 mg/kg/injection, schedule: Q01DX005 (ip), vehicle: saline
[20] = dose: 25.0 mg/kg/injection, schedule: Q01DX009 (ip), vehicle: saline
[21] = dose: 100.0 mg/kg/injection, schedule: Q01DX001 (ip), vehicle: Klucel (hydroxypropylcellulose) (HPC)
[22] = dose: 200.0 mg/kg/injection, schedule: Q01DX001 (ip), vehicle: Klucel (hydroxypropylcellulose) (HPC)
[23] = dose: 100.0 mg/kg/injection, schedule: Q04DX002 (ip), vehicle: saline with Tween-80
[24] = dose: 200.0 mg/kg/injection, schedule: Q04DX003 (ip), vehicle: saline with Tween-80
[25] = dose: 400.0 mg/kg/injection, schedule: Q04DX003 (ip), vehicle: saline with Tween-80
[26] = dose: 100.0 mg/kg/injection, schedule: Q01DX001 (ip), vehicle: saline with Tween-80
[27] = dose: 200.0 mg/kg/injection, schedule: Q01DX001 (ip), vehicle: saline with Tween-80
[28] = dose: 400.0 mg/kg/injection, schedule: Q01DX001 (ip), vehicle: saline with Tween-80

Measured: T/C

CN(C(=O)c1ccc([N+](=O)[O-])cc1)c1ccccc1
inactive: dose: 50.0 mg/kg/injection, schedule: Q01DX001 (ip), vehicle: carboxymethylcellulose (CMC) 100 % of control | dose: 100.0 mg/kg/injection, schedule: Q01DX001 (ip), vehicle: carboxymethylcellulose (CMC) 118 % of control | [1] 103 % of control | dose: 100.0 mg/kg/injection, schedule: Q04DX002 (ip), vehicle: Klucel (hydroxypropylcellulose) (HPC) 93 % of control | dose: 200.0 mg/kg/injection, schedule: Q01DX001 (ip), vehicle: carboxymethylcellulose (CMC) 108 % of control | [2] 96 % of control | dose: 200.0 mg/kg/injection, schedule: Q04DX002 (ip), vehicle: Klucel (hydroxypropylcellulose) (HPC) 90 % of control | dose: 400.0 mg/kg/injection, schedule: Q01DX001 (ip), vehicle: carboxymethylcellulose (CMC) 96 % of control | [3] 100 % of control | dose: 400.0 mg/kg/injection, schedule: Q04DX002 (ip), vehicle: Klucel (hydroxypropylcellulose) (HPC) 123 % of control

Cc1ccc(NCN2C(=O)c3ccccc3C2=O)c(C)c1
inactive: [4] 105 % of control | [5] 106 % of control | [6] 94 % of control

O=[N+]([O-])c1cccc(C=Nc2ccccc2F)c1
inactive: [1] 94 % of control | [2] 98 % of control | [3] 98 % of control

Cc1ccc(C(=O)C2CC2)cc1C
inactive: [7] 100 % of control | [8] 91 % of control | [9] 98 % of control | dose: 200.0 mg/kg/injection, schedule: Q01DX009 (ip), vehicle: saline with Tween-80 91 % of control | dose: 202.0 mg/kg/injection, schedule: Q04DX003 (ip), vehicle: saline with Tween-80 107 % of control

Cc1cc(C(=O)O)c(C)n1-c1ccccc1
inactive: dose: 75.0 mg/kg/injection, schedule: Q01DX009 (ip), vehicle: Klucel (hydroxypropylcellulose) (HPC) 100 % of control | dose: 150.0 mg/kg/injection, schedule: Q01DX009 (ip), vehicle: Klucel (hydroxypropylcellulose) (HPC) 95 % of control | dose: 300.0 mg/kg/injection, schedule: Q01DX009 (ip), vehicle: Klucel (hydroxypropylcellulose) (HPC) 92 % of control

C/C(=N/N(CCCCN(/N=C(/C)c1ccccc1)c1ccccc1)c1ccccc1)c1ccccc1
inactive: [10] 97 % of control | [11] 95 % of control | [12] 92 % of control | [13] 92 % of control

O=C(NCCO)NCCO
inactive: [14] 95 % of control | [15] 98 % of control | [16] 123 % of control

C=CCNc1ncnc2c1cnn2C
inactive: [17] 118 % of control | [18] 103 % of control

Cc1ccc(S(=O)(=O)OCC2OC(n3cnc4c(=O)[nH]cnc43)C3OC(C)(C)OC23)cc1 (stereo not given)
inactive: [19] 103 % of control | dose: 200.0 mg/kg/injection, schedule: Q01DX005 (ip), vehicle: saline 103 % of control

CC(=O)Nc1c(Cl)cc(I)cc1Cl
inactive: [1] 103 % of control | [2] 103 % of control | [3] 97 % of control

C[N+](C)(C)Cc1ccco1
inactive: [20] 103 % of control | [17] 93 % of control | [18] 95 % of control and 90 % of control

CCCCCCCCCCCCCCCCCCSCCO
inactive: [4] 100 % of control and 90 % of control | [5] 102 % of control | [6] 92 % of control and 100 % of control

c1ccc2c3csccc-3nc2c1
inactive: dose: 12.5 mg/kg/injection, schedule: Q01DX009 (ip), vehicle: saline 92 % of control | [20] 98 % of control | dose: 50.0 mg/kg/injection, schedule: Q01DX009 (ip), vehicle: Klucel (hydroxypropylcellulose) (HPC) 94 % of control | [17] 97 % of control | [1] 92 % of control | dose: 100.0 mg/kg/injection, schedule: Q04DX003 (ip), vehicle: acetone 94 % of control and 98 % of control | [2] 92 % of control | dose: 200.0 mg/kg/injection, schedule: Q04DX003 (ip), vehicle: acetone 97 % of control

ClCCOCCOc1ccc(C2CCCCC2)cc1
inactive: [18] 106 % of control | dose: 200.0 mg/kg/injection, schedule: Q01DX009 (ip), vehicle: saline 97 % of control | dose: 400.0 mg/kg/injection, schedule: Q01DX009 (ip), vehicle: saline 90 % of control

Nc1nc(SCc2ccccc2)nc2nc[nH]c12
inactive: dose: 50.0 mg/kg/injection, schedule: Q01DX001 (ip), vehicle: Klucel (hydroxypropylcellulose) (HPC) 91 % of control | [21] 95 % of control | [22] 93 % of control

O=C(Nc1cccc(Cl)c1)Oc1c(Cl)cc(S(=O)(=O)F)cc1Cl
inactive: dose: 25.0 mg/kg/injection, schedule: Q01DX009 (ip), vehicle: saline with Tween-80 97 % of control | dose: 25.0 mg/kg/injection, schedule: Q04DX002 (ip), vehicle: saline with Tween-80 101 % of control | [7] 93 % of control | dose: 50.0 mg/kg/injection, schedule: Q04DX002 (ip), vehicle: saline with Tween-80 93 % of control | [8] 100 % of control | [23] 96 % of control and 90 % of control

COc1ccc(C2CCCCC2O)cc1 (stereo not given)
inactive: [1] 94 % of control | [4] 97 % of control | [2] 99 % of control | [5] 91 % of control | [3] 99 % of control | [6] 93 % of control

CC(C)(C)OC(=O)N/N=C/c1ccc([N+](=O)[O-])s1
inactive: [9] 94 % of control | [24] 98 % of control | [25] 89 % of control

CCCCCCCCCCCCCCCCOc1ccccn1
inactive: [1] 96 % of control | [4] 92 % of control | [2] 96 % of control | [5] 95 % of control | [3] 98 % of control | [6] 90 % of control

CCC(COC(=O)c1ccccc1)(COC(=O)c1ccccc1)[N+](=O)[O-]
inactive: [21] 105 % of control | [22] 95 % of control | dose: 400.0 mg/kg/injection, schedule: Q01DX001 (ip), vehicle: Klucel (hydroxypropylcellulose) (HPC) 108 % of control

OCC1OC(n2cnc3c([Se])ncnc32)C(O)C1O (stereo not given)
inactive: [19] 105 % of control

CCOc1cc(OCC)c(OCC)cc1C=C(C#N)C#N
inactive: [1] 91 % of control | [3] 88 % of control

O=C(CCC(=O)c1ccccc1)c1ccccc1
inactive: [26] 100 % of control | [27] 98 % of control | [28] 95 % of control

O=C(/C=C/c1ccccc1)NC(=S)Nc1ccccc1C(F)(F)F
inactive: dose: 12.5 mg/kg/injection, schedule: Q01DX009 (ip), vehicle: saline with Tween-80 93 % of control and 100 % of control | [26] 92 % of control | [23] 91 % of control | [9] 103 % of control | [27] 97 % of control | dose: 200.0 mg/kg/injection, schedule: Q04DX002 (ip), vehicle: saline with Tween-80 95 % of control and 101 % of control | [24] 91 % of control | [28] 112 % of control | dose: 400.0 mg/kg/injection, schedule: Q01DX009 (ip), vehicle: saline with Tween-80 86 % of control | dose: 400.0 mg/kg/injection, schedule: Q04DX002 (ip), vehicle: saline with Tween-80 93 % of control and 95 % of control | [25] 91 % of control

CC(C)c1nc2c(c(=O)n(C)c(=O)n2C)n1C
inactive: [10] 102 % of control | [11] 96 % of control | [12] 96 % of control | [13] 108 % of control

OC1(C2CCCCC2)C2CCCC1CCC2 (stereo not given)
inactive: dose: 100.0 mg/kg/injection, schedule: Q01DX009 (ip), vehicle: other 94 % of control | [9] 99 % of control | dose: 200.0 mg/kg/injection, schedule: Q01DX009 (ip), vehicle: other 94 % of control | [24] 92 % of control | dose: 400.0 mg/kg/injection, schedule: Q01DX009 (ip), vehicle: other 101 % of control | [25] 103 % of control

C(=C1/CC2CCC1C2)/c1ccccc1 (stereo not given)
inactive: [11] 98 % of control | [14] 93 % of control | [12] 103 % of control | [15] 93 % of control | [13] 101 % of control | [16] 89 % of control
